Data as given in ChEMBL document CHEMBL1150895, “Spongiacidins A-D, new bromopyrrole alkaloids from hymeniacidon sponge” (J Nat Prod, 1998).
pIC50: −log10 of the molar value.

Experiments:
[1] = target: Cyclin-dependent kinase 4 (Homo sapiens, UniProt P11802); test: Inhibition of CDK4
[2] = target: Receptor tyrosine-protein kinase erbB-2 (Homo sapiens, UniProt P04626); test: Inhibition of c-erbB-2
Receptor tyrosine-protein kinase erbB-2, sequence (P04626 whole entry): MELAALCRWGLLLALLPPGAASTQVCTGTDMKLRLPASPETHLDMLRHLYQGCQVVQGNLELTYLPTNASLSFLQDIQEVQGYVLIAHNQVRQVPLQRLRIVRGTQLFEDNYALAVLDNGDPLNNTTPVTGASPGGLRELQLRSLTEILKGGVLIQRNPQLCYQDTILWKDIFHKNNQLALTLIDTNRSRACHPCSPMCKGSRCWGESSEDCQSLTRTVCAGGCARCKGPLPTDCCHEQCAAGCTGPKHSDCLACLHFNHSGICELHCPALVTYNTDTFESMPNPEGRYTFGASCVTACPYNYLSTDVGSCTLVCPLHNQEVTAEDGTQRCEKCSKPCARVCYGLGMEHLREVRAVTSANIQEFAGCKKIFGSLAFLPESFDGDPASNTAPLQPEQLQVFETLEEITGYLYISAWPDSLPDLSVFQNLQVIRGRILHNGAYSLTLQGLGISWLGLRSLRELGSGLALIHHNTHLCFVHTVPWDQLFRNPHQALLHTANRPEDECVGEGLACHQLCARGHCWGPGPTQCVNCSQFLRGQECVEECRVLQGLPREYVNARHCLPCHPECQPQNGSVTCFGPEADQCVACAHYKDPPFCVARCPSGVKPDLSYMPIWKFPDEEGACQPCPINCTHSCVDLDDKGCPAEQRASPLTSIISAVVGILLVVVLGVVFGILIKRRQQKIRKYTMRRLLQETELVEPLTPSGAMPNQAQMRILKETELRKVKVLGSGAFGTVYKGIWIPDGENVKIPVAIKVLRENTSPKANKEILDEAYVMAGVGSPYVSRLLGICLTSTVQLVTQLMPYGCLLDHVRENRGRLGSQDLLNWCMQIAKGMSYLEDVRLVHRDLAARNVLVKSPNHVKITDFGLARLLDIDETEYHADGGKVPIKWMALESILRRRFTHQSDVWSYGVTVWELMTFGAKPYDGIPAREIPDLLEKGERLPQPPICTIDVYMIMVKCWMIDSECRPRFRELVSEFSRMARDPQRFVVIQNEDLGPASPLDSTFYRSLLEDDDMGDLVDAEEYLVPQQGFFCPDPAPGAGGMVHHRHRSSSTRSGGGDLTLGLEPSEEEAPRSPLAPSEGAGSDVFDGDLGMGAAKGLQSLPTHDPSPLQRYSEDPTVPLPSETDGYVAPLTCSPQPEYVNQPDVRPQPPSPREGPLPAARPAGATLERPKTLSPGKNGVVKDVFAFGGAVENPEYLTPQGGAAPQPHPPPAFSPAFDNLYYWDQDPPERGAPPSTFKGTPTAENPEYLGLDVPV

Cyclin-dependent kinase 4, sequence (P11802 whole entry): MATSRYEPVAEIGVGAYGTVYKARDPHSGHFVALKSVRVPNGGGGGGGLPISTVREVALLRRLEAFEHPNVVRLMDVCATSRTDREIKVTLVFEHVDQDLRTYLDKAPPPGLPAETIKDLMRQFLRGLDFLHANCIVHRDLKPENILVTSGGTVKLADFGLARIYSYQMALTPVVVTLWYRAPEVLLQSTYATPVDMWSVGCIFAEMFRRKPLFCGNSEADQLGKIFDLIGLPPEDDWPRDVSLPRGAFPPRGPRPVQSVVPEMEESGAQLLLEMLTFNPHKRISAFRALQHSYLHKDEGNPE

pIC50 [1] | pIC50 [2] | SMILES
< 3.81 | < 3.81 | O=C1NC(=O)/C(=C2\CCNC(=O)c3[nH]c(Br)cc32)N1 [SPONGIACIDIN D]
< 3.69 | < 3.69 | O=C1NC(=O)/C(=C2\CCNC(=O)c3[nH]ccc32)N1 [SPONGIACIDIN C]
